# Measurements: ChEMBL document CHEMBL3739393, “Synthesis, Structural Characterization, and Bioactivity of the Stable Peptide RCB-1 from Ricinus communis” (J Nat Prod, 2015)
# pEC50: −log10 of the molar value. Positions of bridges follow the written chain, without caps; N, C: chain ends. Residues, ends and D or L forms follow the SMILES beside them.
# Key:
# [1] = Cytotoxicity against human U937/GTB cells up to 50 uM by fluorescein diacetate-based fluorometric microculture cytotoxicity assay; format: cell-based; settings: u-937/gtb
# [2] = tested on: Pectobacterium carotovorum; experiment: Antibacterial activity against Erwinia carotovora incubated for 5 hrs; format: functional, organism-based
# Pseudomonas aeruginosa = experiment: Antibacterial activity against Pseudomonas aeruginosa ATCC 27853 incubated for 5 hrs; format: functional, organism-based; settings: ATCC 27853, 5 h
# Erwinia amylovora = experiment: Antibacterial activity against Erwinia amylovora incubated for 5 hrs; format: functional, organism-based
# Candida albicans = experiment: Antifungal activity against Candida albicans ATCC 90028 incubated for 5 hrs; format: functional, organism-based; settings: ATCC 90028, 5 h
# Aspergillus fumigatus = experiment: Antifungal activity against Aspergillus fumigatus incubated for 5 hrs; format: functional, organism-based
# Escherichia coli = experiment: Antibacterial activity against Escherichia coli ATCC 25922 incubated for 5 hrs; format: functional, organism-based; settings: ATCC 25922, 5 h
# Staphylococcus aureus = experiment: Antibacterial activity against Staphylococcus aureus ATCC 29213 incubated for 5 hrs; format: functional, organism-based; settings: ATCC 29213, 5 h
# [3] = Stability in human serum assessed as compound remaining after 24 hrs at 37 degC by LC/MS analysis; format: ADME; settings: read-out: Stability
smiles,measurement,setting,value
"CSCC[C@@H]1NC(=O)[C@H](C(C)C)NC(=O)[C@H](CC(C)C)NC(=O)[C@@H]2CSSC[C@@H](C(=O)N[C@@H](CO)C(=O)O)NC(=O)[C@H](Cc3ccccc3)NC(=O)[C@H](CCCCN)NC(=O)[C@H](C(C)C)NC(=O)[C@H](CSSC[C@H](NC(=O)[C@H](CCCNC(=N)N)NC(=O)[C@H](C)N)C(=O)N2)NC(=O)[C@H](C)NC(=O)[C@H](Cc2ccccc2)NC(=O)[C@@H]2CCCN2C(=O)[C@@H]2CCCN2C(=O)[C@H](C(C)C)NC(=O)[C@@H]2CCCN2C1=O (H-ARCCLVMPVPPFACVKFCS-OH; disulfide 3-14, 4-18)",Activity,[1],Non-toxic
same,pEC50,[2],< 3.80
same,pEC50,Pseudomonas aeruginosa,4.57
same,pEC50,Erwinia amylovora,< 3.80
same,pEC50,Candida albicans,< 3.80
same,pEC50,Aspergillus fumigatus,< 3.80
same,pEC50,Escherichia coli,< 3.80
same,pEC50,Staphylococcus aureus,< 3.80
same,remaining at 24 h,[3],> 95%
